Measured values taken from PMC7587396, “New Zileuton-Hydroxycinnamic Acid Hybrids: Synthesis and Structure-Activity Relationship towards 5-Lipoxygenase Inhibition” (Molecules, 2020).
“Also recorded” adds a separate entry of the source.

Experiments:
5-LO [1] = molecular target: T1, 5-LO (Homo sapiens, UniProt P09917); experiment: 5-LO product biosynthesis assay in stimulated HEK293 cells co-transfected with 5-LO and FLAP; format: cell-based; parameters: expressed in transfected cells; host or cells: HEK293 cells, stably co-transfected (pcDNA3.1 5-LO, pBUDCE4.1 FLAP); settings: compounds at 1 µM; result in words, compared with zileuton (1) and SAPE (2) at 1 µM; A23187 + arachidonic acid stimulation
T1 sequence (P09917 1-674): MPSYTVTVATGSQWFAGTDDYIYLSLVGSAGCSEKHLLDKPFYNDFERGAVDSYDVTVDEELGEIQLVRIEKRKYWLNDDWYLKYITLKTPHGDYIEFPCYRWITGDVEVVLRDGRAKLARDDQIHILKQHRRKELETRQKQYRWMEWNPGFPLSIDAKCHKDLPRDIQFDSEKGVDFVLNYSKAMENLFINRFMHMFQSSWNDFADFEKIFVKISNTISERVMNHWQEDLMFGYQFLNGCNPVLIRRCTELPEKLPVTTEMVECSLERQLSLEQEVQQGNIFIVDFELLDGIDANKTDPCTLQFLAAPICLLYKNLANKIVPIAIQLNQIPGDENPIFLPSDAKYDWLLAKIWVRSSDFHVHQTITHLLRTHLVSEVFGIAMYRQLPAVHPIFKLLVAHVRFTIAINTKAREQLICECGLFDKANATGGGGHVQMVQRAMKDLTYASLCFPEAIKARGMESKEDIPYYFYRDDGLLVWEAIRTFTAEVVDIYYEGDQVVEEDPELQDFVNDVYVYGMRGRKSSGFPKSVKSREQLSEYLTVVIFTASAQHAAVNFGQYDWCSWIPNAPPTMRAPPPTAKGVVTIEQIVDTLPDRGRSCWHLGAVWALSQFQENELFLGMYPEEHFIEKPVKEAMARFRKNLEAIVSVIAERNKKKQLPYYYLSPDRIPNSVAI
Description: All compounds, including known inhibitors zileuton (1) and SAPE (2), were assayed at 1 µM (Figure 1) for inhibition of LTs biosynthesis in stimulated HEK293 cells. These cells are stably transfected with human 5-LO and serves as a highly reproducible model of 5-LO product biosynthesis in which compounds can be preliminarily screened for anti-LTs activity before moving on to more complex systems. […] Esterification of benzo[b]thiophene-2-carboxylic acid to obtain benzyl to phenbutyl analogs (4–7) had no effect on the inhibitory activity of 5-LO. […] Even the addition of a hydroxyl (8) or methoxy (9) at para-position of the phenethyl group has no effect on the activity.
HEK293 cells were stably co-transfected with a pcDNA3.1 vector expressing 5-LO and a pBUDCE4.1 vector expressing 5-LO activating protein (FLAP) as previously reported. This represents a controlled model for the evaluation of 5-LO inhibition in a cellular system. For cell stimulation of 5-LO products, transfected HEK293 cells were collected following trypsinization, washed and the cell pellet was resuspended in Hank’s balanced salt solution (HBSS) (Lonza, Walkerville, MD) containing 1.6 mM CaCl2 at a concentration of 5 × 10^5 cells/mL. Cells were pre-incubated with each compound dissolved in DMSO at the indicated concentration for 5 min at 37 °C. Cells were then stimulated for 15 min at 37 °C with the addition of 10 µM calcium ionophore A23187 (Sigma-Aldrich, Oakville, ON, Canada) and 10 µM arachidonic acid (Cayman Chemical, Ann Arbor, MI). Stimulation was stopped and processed for RP-HPLC analysis as described previously.

[2] = Free radical scavenging activity assay (DPPH); settings: DPPH stable radical, 30 min, absorbance 517 nm; read-out: Free radical scavenging activity IC50 (µM) [SEM]
Description: A mechanism by which 5-LO activity can be inhibited is through reductive inhibition of the ferric non-heme iron of the enzyme. Interactions with stable free radicals provides an evaluation of the reducing ability of the test compounds. Radical scavenging activities of compounds tested in stimulated PMNL were assayed using 2,2-Diphenyl-1-picrylhydrazyl (DPPH) as a stable radical and are expressed as IC50 concentrations in Table 1.
The free radical scavenging activity of test compounds was measured as previously described using 2,2-diphenyl-1-picrylhydrazyl (DPPH) as a stable radical with slight modifications. DPPH (200 µL) in ethanol (250 µM) was mixed with 200 µL of the test compounds (1, 5, 10, 25, 50, 75, and 100 µg/mL). Each mixture was then shaken vigorously and held in the dark for 30 min at room temperature. The absorbance of DPPH at 517 nm was then measured. The radical scavenging activity was expressed in terms of % inhibition of DPPH absorbance:% Inhibition = (A control − A test)/A control) × 100 where A control is the absorbance of the control (DPPH solution without test compounds) and A test is the absorbance of the test sample (DPPH solution plus compounds). Ascorbic acid was used as a positive control. Data were expressed as mean ± SEM of three independent experiments, each performed in triplicate. IC50 values were calculated from a sigmoidal concentration-response curve-fitting model with a variable slope on GraphPad Prism software.

5-LO [3] = molecular target: T1, 5-LO; experiment: 5-LO products biosynthesis assay in human PMNL cells; format: cell-based; parameters: 5-LO is highly expressed in PMNL; endogenous in cells; host or cells: human PMNL from peripheral blood of healthy volunteers; settings: for Inhibition of the biosynthesis of 5-LO products in human PMNL cells: compounds at 1 µM, result in words, compared with zileuton (1), SAPE (2) or controls, thapsigargin stimulation
Text: To further probe the inhibitory activity of compounds that approached the inhibitory activity of zileuton (1) and SAPE (2), compounds were selected for further screening in PMNL (Figure 6). 5-LO is highly expressed in PMNL and these cells are important physiological producers of LTB4 [17]. […] The presence of the hydroxyl group in position 4 and the methoxy groups in positions 3 and 5 seems to be an ideal combination for inhibition of 5-LO (Figure 6). These structural changes may influence the availability, cell permeation, or even the stability of inhibitors in PMNL versus HEK293 cells. […] Human PMNL were prepared from peripheral blood of healthy consenting volunteers as described. Human PMNL are an important source of 5-LO metabolites and are relevant primary inflammatory cells for the evaluation of the best compounds identified during the screening process. PMNL were suspended in HBSS containing 1.6 mM CaCl2 (10^7 cells/mL) and pre-incubated with compounds dissolved in DMSO for 5 min at 37 °C in the presence of 0.4 U/mL of adenosine deaminase (Sigma-Aldrich, Oakville, On, Canada). Cells were then stimulated for 15 min at 37 °C with 1 μM thapsigargin (Sigma-Aldrich). Reactions were stopped by the addition of 0.5 mL of cold MeOH:CH3CN (1:1) and 50 ng of PGB2 as internal standard and samples were stored at -20 °C until processing for RP-HPLC analysis as indicated above.

Compound | Inhibition of the biosynthesis of 5-LO products in stimulated HEK293 cells (5-LO [1]) | melting point [°C] | IC50 [2] [µM] | Inhibition of the biosynthesis of 5-LO products in human PMNL cells (5-LO [3]) | IC50 (5-LO [3]; 95% confidence interval: 0.25–0.53 μM, read-out: IC50 for the inhibition of 5-LO product biosynthesis in PMNL) [µM]
NC(=O)N(O)C(=O)Cc1ccccc1 [Compound 39, 1-Hydroxy-1-(2-phenylacetyl)urea] | inactive | 133 to 135 | – | – | –
COc1cc(/C=C/C(=O)N(O)C(N)=O)cc(OC)c1O [Compound 37] | inactive | – | 13.3 | inactivity; also recorded: inactive | –
CC(c1cc2ccccc2s1)N(O)C(N)=O (stereo not shown) [Zileuton (1), zileuton] | – | – | > 100 | – | –
NC(=O)N(O)C(=O)CCc1ccccc1 [Compound 40] | inactive | – | – | – | –
NC(=O)N(O)C(=O)/C=C/c1ccccc1 [Compound 33, 1-Hydroxy-1-((E)-3-phenylacryloyl)urea] | inactive | 130 to 132 | – | – | –
O=C(/C=C/c1ccc(O)cc1)c1cc2ccccc2s1 [Compound 16] | non-significantly different than Zileuton (1) | – | 68.9 | neither compound showed significant inhibition compared to controls | –
COc1ccc(/C=C/C(=O)N(O)C(N)=O)cc1O [Compound 34, 1-Hydroxy-1-((E)-3-(3-hydroxy-4-methoxyphenyl)acryloyl)urea] | inactive | 170 to 172 | – | – | –
O=C(OCCc1ccccc1)c1cc2ccccc2s1 [Compound 5, Phenethyl 1-benzothiophene-2-carboxylate] | – | 61 to 62 | – | – | –
Cc1cc(/C=C/C(=O)c2cc3ccccc3s2)cc(C)c1O [Compound 29] | does not seem to be favorable for the inhibition of 5-LO products | – | – | – | –
COc1cc(/C=C/C(=O)c2cc3ccccc3s2)cc(OC)c1OC [Compound 26] | inactive | – | – | – | –
COc1cc(OC)c(/C=C/C(=O)c2cc3ccccc3s2)c(OC)c1 [Compound 27] | equipotent to Zileuton (1) | – | 6.9 | complete loss of the 5-LO inhibition | –
COc1cc(/C=C/C(=O)c2cc3ccccc3s2)cc(O)c1OC [Compound 31] | inactive; also recorded: less active than compound 28 | – | 6.6 | total loss of activity; also recorded: inactive | –
COc1cc(/C=C/C(=O)N(O)C(N)=O)ccc1O [Compound 35] | inactive | – | – | – | –
NC(=O)N(O)C(=O)c1ccccc1 [Compound 38, 1-Hydroxy-1-(benzoyl)urea] | inactive | 127 to 129 | – | – | –
COc1cc(O)cc(OC)c1/C=C/C(=O)c1cc2ccccc2s1 [Compound 30] | less active than compound 28 | – | – | – | –
O=C(/C=C/c1ccccc1)c1cc2ccccc2s1 [Compound 11, (E)-1-(1-Benzothiophen-2-yl)-3-phenyl-2-propen-1-one] | less active than SAPE (2); also recorded: non-significantly different than Zileuton (1) | 118 to 120 | – | – | –
O=C(/C=C/c1ccccc1O)c1cc2ccccc2s1 [Compound 14, (E)-1-(1-Benzothiophen-2-yl)-3-(o-hydroxyphenyl)-2-propen-1-one] | non-significantly different than Zileuton (1) | 178 to 180 | 31.8 | neither compound showed significant inhibition compared to controls | –
COc1cc(/C=C/C(=O)c2cc3ccccc3s2)cc(OC)c1 [Compound 20] | not-significantly different than zileuton (1) | – | – | – | –
COc1cc(/C=C/C(=O)c2cc3ccccc3s2)cc(OC)c1O [Compound 28] | equipotent to zileuton (1); also recorded: non-significantly different than zileuton (1) and SAPE (2) | – | 48.9 | three times as active as zileuton (1); also recorded: exceeding zileuton’s (1) inhibitory capacity in PMNL by more than three times | 0.37
COc1cc(/C=C/C(=O)OCCc2ccccc2)cc(OC)c1O [SAPE (2), sinapic acid phenethyl ester, reference compound] | – | – | 25.4 | – | –
O=C1O[C@H]([C@@H](O)CO)C(O)=C1O [Vitamin C, Ascorbic acid, reference compound] | – | – | 21.8 | – | –
COc1ccc(/C=C/C(=O)N(O)C(N)=O)cc1OC [Compound 36] | inactive | – | – | – | –
COc1cc(/C=C/C(=O)c2cc3ccccc3s2)ccc1O [Compound 18] | not-significantly different than zileuton (1) | – | 68.8 | less active than zileuton (1) and SAPE (2) | –
COc1ccc(/C=C/C(=O)c2cc3ccccc3s2)cc1O [Compound 17] | – | – | 64.7 | less active than zileuton (1) and SAPE (2) | –
